According to paper PMC9788692 (2022):

Legend:
Assay in all cases: in-line probing
[1] = test system: 95 Csp (RNA, riboswitch) GGAAUGCUUCCUCCGCCACCGGGCGGAGGGUGAAAAGCGUCCACGGUCUCCCGUAGGUACGGCGCGCUCUGCGCGUUACAAGGGAGCCGCGGGCG; conditions: 100 mM KCl, 20 mM MgCl2, 50 mM Tris-HCl pH 8.3 (23 °C), ~48 h
[2] = test system: 81 Csp (RNA, riboswitch) GGAAUGCUUCCUCCGCCACCGGGCGGAGGGUGAAAAGCGUCCACGGUCUCCCGUAGGUACGGCGCGCUCUGCGCGUUACAA; conditions: 100 mM KCl, 20 mM MgCl2; 50 mM Tris-HCl pH 8.3 (23 °C), ~48 h; weaker than 95 Csp
[3] = test system: 105 Mja (RNA, riboswitch) GGAACACCGCUUCUGUCACCGGACAGGAGAAAUGGGGUGUCUGGGAGUUGUCGUAGGUACGGUAUGGUUGCAUGCUAUAAGACAAUUCCUGGGCACCCCUGUUUU; conditions: 100 mM KCl, 20 mM MgCl2; 50 mM Tris-HCl pH 8.3 (23 °C), ~48 h; highest concentration 10 mM
[4] = test system: 95 Csp M2 (RNA, riboswitch) GGAAUGCUUCCUCCGCCACCGGGCGGAGGGUGAAAAGCGUCCACGGUCUCCCGUAGGAACGGCGCGCUCUGCGCGUUACAAGGGAGCCGCGGGCG; conditions: 100 mM KCl, 20 mM MgCl2; 50 mM Tris-HCl pH 8.3 (23 °C), ~48 h; highest concentration 10 mM; modulation almost eliminated
[5] = test system: 95 Dsu (RNA, riboswitch) GGAAACUCUUCCCUGUCACCGGAUAGGGAGCCAAGAGGGUUUAUUCCUGCUGCAGGUAAUAUGGCGAAAACCAUUGAAAGGCAGGAAUAAAUCCU; conditions: 100 mM KCl, 20 mM MgCl2; 50 mM Tris-HCl pH 8.3 (23 °C), ~48 h; highest concentration 10 mM
[6] = weaker than guanidine, data not shown
[7] = highest concentration not stated

## N=C(N)NO
[1]; [6]
  binding: weak

## N=C(N)NOCC[C@H](N)C(=O)O
[1]; [7]
  binding: no

## N=C(N)NCCCCN
[1]; [7]
  binding: no

## CNC(=N)N
[1]; [6]
  binding: weak

## N=C(N)N
[2]
  binding: weak
[3]
  binding: no
[4]
  binding: weak
[5]
  binding: no
[1]; 0.61 µM-20 mM, no saturation, modulation above 1 mM
  binding: weak

## N=C(N)NCCC[C@H](N)C(=O)O
[1]; [7]
  binding: no
